Reference: patent publication US20050245399A1, “Pyrazole derivatives as herbicidal compositions containing them” (ISHIHARA SANGYO KAISHA, LTD., priority 2004, published 2005)

Key:
Type in all cases: in vivo
[1] = system: wheat (Triticum aestivum L.): TRZAX; assay: Test Example 1 pre-emergence herbicidal activity, TRZAX; conditions: Rate 63 g a.i./ha, visually observed 20th to 23rd day after application
Procedure, shortened: (§1)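 Seeds sown in upland field soil in pots; one day later compound, formulated as wettable powder or emulsifiable concentrate and diluted with water at 500 L/ha, sprayed pre-emergence at a predetermined active-ingredient rate. Growth control scored visually 20–23 days after application, 0 (untreated-like) to 100 (complete kill) %.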

[2] = system: rice (Oryza sativa L.): ORYSA; assay: Test Example 1 pre-emergence herbicidal activity, ORYSA; conditions: Rate 63 g a.i./ha, visually observed 20th to 23rd day after application
Procedure, shortened: as §1

[3] = system: velvetleaf (Abutilon theophrasti), ABUTH; assay: Test Example 2 post-emergence (foliage treatment) herbicidal activity, ABUTH; conditions: 63 g a.i./ha
Procedure, shortened: (§2)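 Foliar spray of formulated compound (500 L/ha dilution water, 0.1% v/v spreader) onto young potted plants at defined leaf stages. Scored 0-100% by visual inspection 20-23 d post-spray.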

[4] = system: corn (Zea mays L.), ZEAMX; assay: Test Example 2 post-emergence (foliage treatment) herbicidal activity, ZEAMX; conditions: 63 g a.i./ha
Procedure, shortened: as §2

[5] = system: corn (Zea mays L.): ZEAMX; assay: Test Example 1 pre-emergence herbicidal activity, ZEAMX; conditions: Rate 63 g a.i./ha, visually observed 20th to 23rd day after application
Procedure, shortened: as §1

[6] = system: japanese bulrush (Scirpus juncoides: SCPJO); assay: Test Example 3 water application herbicidal activity (paddy), SCPJO; conditions: 63 g a.i./ha, water application under submerged condition at 0.5 leaf stage, visually observed 14th day after application; 0 = untreated control, 100 = complete kill
From the text: (§3) Paddy field soil was put into a 1/1,000,000 ha pot and seeds of barnyardgrass (Echinochiloa oryzicola: ECHOR) and japanese bulrush (Scirpus juncoides: SCPJO) were sown and slightly covered with soil. Then the pot was left to stand still in a greenhouse in a state where the depth of flooding water was from 0.5 to 1 cm, and one day later, tubers of japanese ribbon wapato (Sagittaria pygmaea: SA GPY) were planted. Thereafter, the depth of flooding water was maintained at a level of from 3 to 4 cm, and when barnyardgrass and japanese bulrush reached a 0.5 leaf stage, an aqueous diluted solution of a wettable powder or emulsifiable concentrate having the compound of the present invention formulated in accordance with a usual formulation method, was uniformly applied under submerged condition by a pipette so that the dose of the active ingredient would be at a predetermined level. On the other hand, paddy filed soil was put into a 1/1,000,000 ha pot and puddled and leveled, and the depth of flooding water was from 3 to 4 cm. One day later, rice (Oryza sativa L.: ORYSA) of 2 leaf stage was transplanted in a depth of 3 cm. On the 4th day after the transplantation, the compound of the present invention was applied in the same manner as described above. On the 14th day after the application of the herbicide, the growth of barnyardgrass, japanese burlush and japanese ribbon wapato was visually observed and on the 21st day after the application of the herbicide, the growth of rice was visually observed, and the herbicidal effects were evaluated by growth controlling degrees (%) ranging from 0 (equivalent to the untreated control) to 100 (complete kill), whereby the results shown in Table 6, were obtained. Compound Nos. in Table 6 correspond to Compound Nos. in Table 1 and 2 given hereinbefore.

[7] = system: prickly sida (Sida spinosa L.), SIDSP; assay: Test Example 2 post-emergence (foliage treatment) herbicidal activity, SIDSP; conditions: 63 g a.i./ha
Procedure, shortened: as §2

[8] = system: redroot pigweed (Amaranthus retroflexus L.): AMARE; assay: Test Example 1 pre-emergence herbicidal activity, AMARE; conditions: Rate 63 g a.i./ha, visually observed 20th to 23rd day after application
Procedure, shortened: as §1

[9] = system: prickly sida (Sida spinosa L.): SEDSP; assay: Test Example 1 pre-emergence herbicidal activity, SIDSP; conditions: Rate 63 g a.i./ha, visually observed 20th to 23rd day after application
Procedure, shortened: as §1

[10] = system: barnyardgrass (Echinochloa crus-galli L.): ECHCG; assay: Test Example 1 pre-emergence herbicidal activity, ECHCG; conditions: Rate 63 g a.i./ha, visually observed 20th to 23rd day after application
Procedure, shortened: as §1

[11] = system: green foxtail (Setaria viridis L.): SETVI; assay: Test Example 1 pre-emergence herbicidal activity, SETVI; conditions: Rate 63 g a.i./ha, visually observed 20th to 23rd day after application
Procedure, shortened: as §1

[12] = system: barnyardgrass (Echinochiloa oryzicola: ECHOR); assay: Test Example 3 water application herbicidal activity (paddy), ECHOR; conditions: 63 g a.i./ha, water application under submerged condition at 0.5 leaf stage, visually observed 14th day after application; 0 = untreated control, 100 = complete kill
From the text: as §3

[13] = system: japanese ribbon wapato (Sagittaria pygmaea: SA GPY); assay: Test Example 3 water application herbicidal activity (paddy), SAGPY; conditions: 63 g a.i./ha, water application under submerged condition, tubers planted, visually observed 14th day after application; 0 = untreated control, 100 = complete kill
From the text: as §3

[14] = system: crabgrass (Digitaria sanguinalis L.): DIGSA; assay: Test Example 1 pre-emergence herbicidal activity, DIGSA; conditions: Rate 63 g a.i./ha, visually observed 20th to 23rd day after application
Procedure, shortened: as §1

[15] = system: rice (Oryza sativa L.), ORYSA; assay: Test Example 2 post-emergence (foliage treatment) herbicidal activity, ORYSA; conditions: 63 g a.i./ha
Procedure, shortened: (§4)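 Pot-grown plants in upland soil were sprayed over the foliage at ECHCG 1.1-2.1, DIGSA 1.0-2.0, AMARE 0.1-1.5 and ORYSA 1.0-2 leaf stage. Wettable powder or emulsifiable concentrate was diluted in water at 500 L/ha plus 0.1% (v/v) spreader. Growth control was scored visually 20-23 days later, 0 (untreated) to 100% (complete kill).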

[16] = system: wheat (Triticum aestivum L.), TRZAX; assay: Test Example 2 post-emergence (foliage treatment) herbicidal activity, TRZAX; conditions: 63 g a.i./ha
Procedure, shortened: as §2

[17] = system: green foxtail (Setaria viridis L.), SETVI; assay: Test Example 2 post-emergence (foliage treatment) herbicidal activity, SETVI; conditions: 63 g a.i./ha
Procedure, shortened: as §2

[18] = system: soybean (Glycine max Merr.): GLXMA; assay: Test Example 1 pre-emergence herbicidal activity, GLXMA; conditions: Rate 63 g a.i./ha, visually observed 20th to 23rd day after application
Procedure, shortened: as §1

[19] = system: barnyardgrass (Echinochloa crus-galli L.), ECHCG; assay: Test Example 2 post-emergence (foliage treatment) herbicidal activity, ECHCG; conditions: 63 g a.i./ha
Procedure, shortened: as §4

[20] = system: soybean (Glycine max Merr.), GLXMA; assay: Test Example 2 post-emergence (foliage treatment) herbicidal activity, GLXMA; conditions: 63 g a.i./ha
Procedure, shortened: as §2

[21] = system: velvetleaf (Abutilon theophrasti): ABUTH; assay: Test Example 1 pre-emergence herbicidal activity, ABUTH; conditions: Rate 63 g a.i./ha, visually observed 20th to 23rd day after application
Procedure, shortened: as §1

[22] = system: crabgrass (Digitaria sanguinalis L.), DIGSA; assay: Test Example 2 post-emergence (foliage treatment) herbicidal activity, DIGSA; conditions: 63 g a.i./ha
Procedure, shortened: as §4

[23] = system: redroot pigweed (Amaranthus retroflexus L.), AMARE; assay: Test Example 2 post-emergence (foliage treatment) herbicidal activity, AMARE; conditions: 63 g a.i./ha
Procedure, shortened: as §4

SMILES | Pre-emergence Herbicidal Activity TRZAX (growth controlling degree) [1] [%] | Pre-emergence Herbicidal Activity ORYSA (growth controlling degree) [2] [%] | growth controlling degree, ABUTH [3] [%] | growth controlling degree, ZEAMX [4] [%] | Pre-emergence Herbicidal Activity ZEAMX (growth controlling degree) [5] [%] | growth controlling degrees (%) SCPJO [6] [%] | growth controlling degree, SIDSP [7] [%] | Pre-emergence Herbicidal Activity AMARE (growth controlling degree) [8] [%] | Pre-emergence Herbicidal Activity SIDSP (growth controlling degree) [9] [%] | Pre-emergence Herbicidal Activity ECHCG (growth controlling degree) [10] [%] | Pre-emergence Herbicidal Activity SETVI (growth controlling degree) [11] [%] | growth controlling degrees (%) ECHOR [12] [%] | growth controlling degrees (%) SAGPY [13] [%] | Pre-emergence Herbicidal Activity DIGSP (growth controlling degree) [14] [%] | growth controlling degree, ORYSA [15] [%] | growth controlling degree, TRZAX [16] [%] | Pre-emergence Herbicidal Activity GLXMA (growth controlling degree) [18] [%] | growth controlling degree, ECHCO [19] [%] | growth controlling degree, GLXMA [20] [%] | Pre-emergence Herbicidal Activity ABUTH (growth controlling degree) [21] [%] | further results
COc1c(Cl)cc(F)c(-c2nn(C)c(OC(F)F)c2Cl)c1NC(=O)OCCCl [Compound 1-68] | 40 | 40 | 100 | 50 | 10 | 95 | 100 | 100 | 100 | 95 | 100 | 100 | 80 | 100 | 60 | 20 | 0 | 70 | 60 | 100 | growth controlling degree, SETVI [17]: 100%
COc1c(Cl)cc(F)c(-c2nn(C)c(OC(F)F)c2Cl)c1NC(=O)OCCN(C)C [Compound 1-66] | 0 | 0 | 100 | 40 | 0 | 30 | 100 |  | 20 | 0 | 10 | 90 | 0 | 20 | 50 | 20 | 0 | 20 | 60 | 20 | growth controlling degree, DIGSP [22]: 40%; growth controlling degree, SETVI [17]: 60%
COc1c(Cl)cc(F)c(-c2nn(C)c(OC(F)F)c2Cl)c1NC(=O)OCc1cccnc1 [Compound 1-70] | 0 | 40 | 100 | 80 | 0 | 80 | 100 | 100 | 100 | 90 | 70 | 100 | 100 | 80 | 95 | 30 | 0 | 80 | 80 | 100 | growth controlling degree, DIGSP [22]: 60%; growth controlling degree, AMARE [23]: 100%
COc1c(Cl)cc(F)c(-c2nn(C)c(OC(F)F)c2Cl)c1NC(=O)OCc1ccccc1 [Compound 1-71] | 30 | 60 | 100 | 70 | 30 | 70 | 100 | 100 | 100 | 98 | 100 | 100 | 100 | 100 | 80 | 60 | 10 | 100 | 80 | 100 | 
